Where no end group is shown, it is not given here.
How the values were obtained:
Type in all cases: cell-based
[1] = system: Pseudomonas aeruginosa ATCC 27853; experiment: MIC, broth microdilution
Experimental: (§1) The following strains have been used in this study: Escherichia coli ATCC 25922, Staphylococcus aureus ATCC […], Vibrio anguillarum ATCC 43305, Pseudomonas aeruginosa ATCC 27853, Acinetobacter baumannii ATCC 19606, Bacillus subtilis ATCC 6051. Vibrio anguillarum ATCC 43305 was cultivated in tryptic soy broth (TSB, Becton Dickinson, Milan, Italy) implemented with 2% NaCl, all the other strains were grown in Müller-Hinton broth (MH, Becton Dickinson, Milan, Italy).
(§2) The minimum inhibiting concentration (MIC) of each myticalin synthetic peptide was calculated using the broth microdilution method. Briefly, twofold serial dilutions of each peptide were prepared in appropriate growth medium and aliquoted in the wells of a round-bottom microtiter plates (Sarstedt, Nümbrecht, Germany). An overnight culture of each bacterial strain was diluted 1:50 in fresh growth medium and grown to an OD600nm ≈ 0.3. Each well was then inoculated with a standardized inoculum in order to achieve, in a final total volume of 100 μL, a final test concentration of about 5 × 10^5 CFU/mL. The plate was then sealed to minimize evaporation and incubated at 37 °C for 24 h. The day after, the MIC was identified as the lowest concentration of the peptide that impaired any visible bacterial growth.

[2] = system: Bacillus subtilis ATCC 6051; experiment: MIC, broth microdilution
Experimental: as §1, §2

[3] = system: Vibrio anguillarum ATCC 43305; experiment: MIC, broth microdilution
Experimental: as §1, §2

[4] = system: Acinetobacter baumannii ATCC 19606; experiment: MIC, broth microdilution
Experimental: as §1, §2

[5] = system: Staphylococcus aureus ATCC 25923; experiment: MIC, broth microdilution
Experimental: as §1, §2

[6] = system: Escherichia coli ATCC 25922; experiment: MIC, broth microdilution
Experimental: as §1, §2

[7] = system: tested bacterial strains (Gram-positive and Gram-negative); settings: for antimicrobial activity / spectrum in words: tested Gram-positive and Gram-negative strains
Experimental: as §1, §2

[8] = Pseudomonas aeruginosa ATCC 27853, Müller-Hinton broth, about 5 × 10^5 CFU/mL, 37 °C, 24 h, mode of four independent experiments
[9] = Bacillus subtilis ATCC 6051, Müller-Hinton broth, about 5 × 10^5 CFU/mL, 37 °C, 24 h, mode of four independent experiments
[10] = Vibrio anguillarum ATCC 43305, tryptic soy broth with 2% NaCl, about 5 × 10^5 CFU/mL, 37 °C, 24 h, mode of four independent experiments
[11] = Acinetobacter baumannii ATCC 19606, Müller-Hinton broth, about 5 × 10^5 CFU/mL, 37 °C, 24 h, mode of four independent experiments
[12] = Staphylococcus aureus ATCC 25923, Müller-Hinton broth, about 5 × 10^5 CFU/mL, 37 °C, 24 h, mode of four independent experiments
[13] = Escherichia coli ATCC 25922, Müller-Hinton broth, about 5 × 10^5 CFU/mL, 37 °C, 24 h, mode of four independent experiments

Row | Substance | Minimal inhibitory concentration (MIC) ([1]; ATCC 27853, 24 h) [µM] | Minimal inhibitory concentration (MIC) ([2]; ATCC 6051, 24 h) [µM] | Minimal inhibitory concentration (MIC) ([3]; ATCC 43305, 24 h) [µM] | Minimal inhibitory concentration (MIC) ([4]; ATCC 19606, 24 h) [µM] | Minimal inhibitory concentration (MIC) ([5]; ATCC 25923, 24 h) [µM] | Minimal inhibitory concentration (MIC) ([6]; ATCC 25922, 24 h) [µM] | antimicrobial activity / spectrum in words [7] | Minimal inhibitory concentration (MIC) [1, 8] [µM] | Minimal inhibitory concentration (MIC) [2, 9] [µM] | Minimal inhibitory concentration (MIC) [3, 10] [µM] | Minimal inhibitory concentration (MIC) [4, 11] [µM] | Minimal inhibitory concentration (MIC) [5, 12] [µM] | Minimal inhibitory concentration (MIC) [6, 13] [µM] | MIC toward all the tested bacterial strains ([7]; 24 h) [µM]
1 | RRRRRFRRVIRRIRLPKYLTINTE [Myticalin C6] | 32 | 32 | >32 | 2 | 8 | 4 | moderate antimicrobial activity |  |  |  |  |  |  | 
2 | WGRRWRIRIPRLPRPWPPRPKWPRSATINTDQ [Myticalin D2] | 4 | 2 | >32 | 2 | 16 to 32 | 4 | broad spectrum of activity |  |  |  |  |  |  | 
3 | YSWPRMPRIPRLPRYPRYPRYPRWPRHPTIYA-NH2 [Myticalin A8] |  |  |  |  |  |  | broad spectrum of activity | 8 | 4 | >32 | 1 | 16 | 1 | 
4 | YSWPRMPRIPRLPRYPRYPRYPRWPRWPRQPTIYA-NH2 [Myticalin A5] |  |  |  |  |  |  |  | 4 to 8 | 4 | >32 | 4 | 8 to 16 | 2 | 
5 | WPRFPKPRKPTYPGPTYPGPTWPRPTWRRSATIDTEH [Myticalin D5] | >32 | >32 | >32 | >32 | >32 | >32 |  |  |  |  |  |  |  | > 32
6 | RRRRRYRYWRRGLTIQGRPKSLPLNTGD [Myticalin C9] | 8 | 4 | >32 | 2 | 2 | 4 | broad spectrum of activity |  |  |  |  |  |  | 
7 | LRWTPTPSYPRYPTRSRGSRWSR-NH2 [Myticalin B1] | >32 | 32 | >32 | 8 | >32 | 8 to 16 | moderate antimicrobial activity |  |  |  |  |  |  | 

Reference: PMC5577615, “Myticalins: A Novel Multigenic Family of Linear, Cationic Antimicrobial Peptides from Marine Mussels (Mytilus spp.)” (Marine Drugs, 2017)
